Results published in patent publication US20250052744A1, “Dyes and Uses Thereof” (The University of Liverpool, priority 2021, published 2025).

Columns and labels:
Assay in all cases: Qualitative dye staining on agarose pads (EVOS M7000)
Type in all cases: cell-based
Parameters in all cases: key to Relative fluorescent intensity: Very high: If the cells looked twice as big in the fluorescent channel, it was marked as having “very high” relative fluorescent intensity; High: if the cells looked bigger in the fluorescent channel, it was marked as having “high” relative fluorescent intensity; Medium: If the cells looked almost the same size in the fluorescent channel and the bright field, it was marked as having “medium” relative fluorescent intensity; Low: If the cells looked smaller in the fluorescent channel as compared to the brightfield but still the whole cell was visible, it was marked as having “low” relative fluorescent intensity; Negligible: If only a few traces of a cell was visible in the fluorescent channel, it was marked as having “negligible” relative fluorescent intensity
Enterococcus spp. = conditions: Table 6 thresholds, Entercoccus, DiSC3(5) 3 μM, SYBR Green I 10×, SYTO 13 3 μM, FM4-64 15 μM
Enterococcus faecium = conditions: DiSC3(5) 3 μM, SYBR Green I 10×, SYTO 13 3 μM, FM4-64 15 μM
Staphylococcus epidermis = conditions: DiSC3(5) 3 μM, SYBR Green I 10×, SYTO 13 3 μM, FM4-64 15 μM
[1] = Table 7 commercial strain Enterococcus faecium NCTC 7171
[2] = Table 7 commercial strain Enterococcus faecium NCTC 13923
[3] = Table 8 sample Enterococcus faecium (011)
[4] = Table 8 sample Enterococcus faecium (012)
[5] = Table 8 sample Enterococcus faecium (013)
[6] = Table 6 thresholds, Staphylococcus epidermis
[7] = Table 8 sample Staphylococcus epidermis (044)
[8] = Table 8 sample Staphylococcus epidermis (045)
[9] = Table 8 sample Staphylococcus epidermis (046)

SMILES	Percentage of cells stained (Enterococcus spp.)	Relative fluorescent intensity (Enterococcus spp.)	Percentage of cells stained (Enterococcus faecium; [1])	Relative fluorescent intensity (Enterococcus faecium; [1])	Percentage of cells stained (Enterococcus faecium; [2])	Relative fluorescent intensity (Enterococcus faecium; [2])	Percentage of cells stained (Enterococcus faecium; [3])	Relative fluorescent intensity (Enterococcus faecium; [3])	Percentage of cells stained (Enterococcus faecium; [4])	Relative fluorescent intensity (Enterococcus faecium; [4])	Percentage of cells stained (Enterococcus faecium; [5])	Relative fluorescent intensity (Enterococcus faecium; [5])	Percentage of cells stained (Staphylococcus epidermis; [6])	Relative fluorescent intensity (Staphylococcus epidermis; [6])	Percentage of cells stained (Staphylococcus epidermis; [7])	Relative fluorescent intensity (Staphylococcus epidermis; [7])	Percentage of cells stained (Staphylococcus epidermis; [8])	Relative fluorescent intensity (Staphylococcus epidermis; [8])	Percentage of cells stained (Staphylococcus epidermis; [9])	Relative fluorescent intensity (Staphylococcus epidermis; [9])	further results
CCCN(CCCN(C)C)c1cc(/C=C2/Sc3ccccc3N2C)c2ccccc2[n+]1-c1ccccc1 [SYBR Green I, N′,N′-dimethyl-N-[4-[(E)-(3-methyl-1,3-benzothiazol-2-ylidene)methyl]-1-phenylquinolin-1-ium-2-yl]-N-propylpropane-1,3-diamine]	Almost all	medium to high	Almost all	High	Almost all	High	Almost all	High	Almost all	High	Almost all	High	Almost all	High	Almost all	High	Almost all	High	Almost all	High	Relative fluorescent intensity (Enterococcus spp.; listed as SYBR Green): Medium-High
CCCN1C(=CC=CC=Cc2sc3ccccc3[n+]2CCC)Sc2ccccc21.[I-] [DiSC3(5), 3,3′-Dipropylthiadicarbocyanine Iodide]	Half	low and Low	Almost all	Low	Almost all	Low	Almost all	Low	Almost all	Low	Half	Low	Almost all	Very high	Almost all	Very high	Almost all	Very high	Almost all	Very high	–
CCN(CC)c1ccc(C=CC=CC=Cc2cc[n+](CCC[N+](CC)(CC)CC)cc2)cc1.[Br-].[Br-] [FM 4-64, N-(3-Triethylammoniumpropyl)-4-(6-(4-(Diethylamino) Phenyl) Hexatrienyl) Pyridinium Dibromide]	Almost all	medium	Half	Medium	Half	Medium	Half	Medium	Half	Medium	Almost all	Medium	Almost all	Medium	Almost all	Medium	Almost all	Medium	Almost all	Medium	Relative fluorescent intensity (Enterococcus spp.; listed as FM4-64): Medium
